Test: xn = mol fraction of the nth substance listed
Conditions: 328.15 K, Liquid

CCCCCCCCC [nonane] + C1CCCCC1
Conditions | mass density [kg/m3]
100 kPa, x2 = 0 | 690.5
100 kPa, x2 = 0.09303 | 693.4
100 kPa, x2 = 0.2009 | 697
100 kPa, x2 = 0.3051 | 700.9
100 kPa, x2 = 0.417 | 705.3
100 kPa, x2 = 0.512 | 709.7
100 kPa, x2 = 0.5996 | 714.5
100 kPa, x2 = 0.7052 | 720.8
100 kPa, x2 = 0.7993 | 727.5
100 kPa, x2 = 0.9039 | 735.7
101 kPa, x2 = 0 | 690.88
101 kPa, x2 = 0.1022 | 693.98
101 kPa, x2 = 0.1548 | 695.7
101 kPa, x2 = 0.2009 | 697.27
101 kPa, x2 = 0.2591 | 699.37
101 kPa, x2 = 0.3306 | 702.13
101 kPa, x2 = 0.4003 | 705.03
101 kPa, x2 = 0.4596 | 707.71
101 kPa, x2 = 0.5321 | 711.23
101 kPa, x2 = 0.612 | 715.53
101 kPa, x2 = 0.6649 | 718.62
101 kPa, x2 = 0.7224 | 722.28
101 kPa, x2 = 0.8047 | 728.07
101 kPa, x2 = 0.8686 | 733.12
101 kPa, x2 = 0.9405 | 739.53
2130 kPa, x2 = 0 | 691.4
2130 kPa, x2 = 0.09303 | 694.3
2130 kPa, x2 = 0.2009 | 697.9
2130 kPa, x2 = 0.3051 | 701.8
2130 kPa, x2 = 0.417 | 706.3
2130 kPa, x2 = 0.512 | 710.7
2130 kPa, x2 = 0.5996 | 715.6
2130 kPa, x2 = 0.7052 | 721.9
2130 kPa, x2 = 0.7993 | 728.6
2130 kPa, x2 = 0.9039 | 737
4150 kPa, x2 = 0 | 694.4
4150 kPa, x2 = 0.09303 | 697.3
4150 kPa, x2 = 0.2009 | 700.9
4150 kPa, x2 = 0.3051 | 704.8
4150 kPa, x2 = 0.417 | 709.3
4150 kPa, x2 = 0.512 | 713.7
4150 kPa, x2 = 0.5996 | 718.6
4150 kPa, x2 = 0.7052 | 724.9
4150 kPa, x2 = 0.7993 | 731.6
4150 kPa, x2 = 0.9039 | 739.9
6180 kPa, x2 = 0 | 696.3
6180 kPa, x2 = 0.09303 | 699.2
6180 kPa, x2 = 0.2009 | 702.8
6180 kPa, x2 = 0.3051 | 706.7
6180 kPa, x2 = 0.417 | 711.2
6180 kPa, x2 = 0.512 | 715.6
6180 kPa, x2 = 0.5996 | 720.5
6180 kPa, x2 = 0.7052 | 726.9
6180 kPa, x2 = 0.7993 | 733.5
6180 kPa, x2 = 0.9039 | 741.9
8210 kPa, x2 = 0 | 698.1
8210 kPa, x2 = 0.09303 | 701
8210 kPa, x2 = 0.2009 | 704.7
8210 kPa, x2 = 0.3051 | 708.6
8210 kPa, x2 = 0.417 | 713.1
8210 kPa, x2 = 0.512 | 717.5
8210 kPa, x2 = 0.5996 | 722.4
8210 kPa, x2 = 0.7052 | 728.8
8210 kPa, x2 = 0.7993 | 735.5
8210 kPa, x2 = 0.9039 | 743.9
10230 kPa, x2 = 0 | 699.9
10230 kPa, x2 = 0.09303 | 702.8
10230 kPa, x2 = 0.2009 | 706.5
10230 kPa, x2 = 0.3051 | 710.4
10230 kPa, x2 = 0.417 | 714.9
10230 kPa, x2 = 0.512 | 719.3
10230 kPa, x2 = 0.5996 | 724.3
10230 kPa, x2 = 0.7052 | 730.7
10230 kPa, x2 = 0.7993 | 737.3
10230 kPa, x2 = 0.9039 | 745.8
11250 kPa, x2 = 0 | 700.8
11250 kPa, x2 = 0.09303 | 703.7
11250 kPa, x2 = 0.2009 | 707.4
11250 kPa, x2 = 0.3051 | 711.3
11250 kPa, x2 = 0.417 | 715.8
11250 kPa, x2 = 0.512 | 720.2
11250 kPa, x2 = 0.5996 | 725.2
11250 kPa, x2 = 0.7052 | 731.6
11250 kPa, x2 = 0.7993 | 738.3
11250 kPa, x2 = 0.9039 | 746.7
12260 kPa, x2 = 0 | 701.7
12260 kPa, x2 = 0.09303 | 704.6
12260 kPa, x2 = 0.2009 | 708.3
12260 kPa, x2 = 0.3051 | 712.2
12260 kPa, x2 = 0.417 | 716.7
12260 kPa, x2 = 0.512 | 721.1
12260 kPa, x2 = 0.5996 | 726.1
12260 kPa, x2 = 0.7052 | 732.5
12260 kPa, x2 = 0.7993 | 739.2
12260 kPa, x2 = 0.9039 | 747.7
14290 kPa, x2 = 0 | 703.4
14290 kPa, x2 = 0.09303 | 706.3
14290 kPa, x2 = 0.2009 | 710.1
14290 kPa, x2 = 0.3051 | 714
14290 kPa, x2 = 0.417 | 718.5
14290 kPa, x2 = 0.512 | 722.9
14290 kPa, x2 = 0.5996 | 727.9
14290 kPa, x2 = 0.7052 | 734.4
14290 kPa, x2 = 0.7993 | 741
14290 kPa, x2 = 0.9039 | 749.5
16310 kPa, x2 = 0 | 705.1
16310 kPa, x2 = 0.09303 | 708
16310 kPa, x2 = 0.2009 | 711.8
16310 kPa, x2 = 0.3051 | 715.7
16310 kPa, x2 = 0.417 | 720.2
16310 kPa, x2 = 0.512 | 724.6
16310 kPa, x2 = 0.5996 | 729.7
16310 kPa, x2 = 0.7052 | 736.1
16310 kPa, x2 = 0.7993 | 742.8
16310 kPa, x2 = 0.9039 | 751.3
18340 kPa, x2 = 0 | 706.8
18340 kPa, x2 = 0.09303 | 709.6
18340 kPa, x2 = 0.2009 | 713.4
18340 kPa, x2 = 0.3051 | 717.3
18340 kPa, x2 = 0.417 | 721.9
18340 kPa, x2 = 0.512 | 726.3
18340 kPa, x2 = 0.5996 | 731.4
